According to patent US6280773A, “Optimally stabilized microgranule comprising 5-pyrrolyl-2-pyridylmethylsulfinylbenzimidazole derivative” (IL Yang Pharm. Co., Ltd., priority 1998, dated 2001):
Read-outs that look alike come from different tables or passages of the source.

Experiments:
physchem = type: physicochemical; conditions: for remaining at 360 h: solid, 75% relative humidity, read-out: Content of the Active Ingredient after 15 days
Method: . Then, the content of the active ingredient not decomposed was analyzed using a high performance liquid chromatography. The sample containing only the active ingredient without a stabilizer was used as a control.
<Conditions for High Performance Liquid Chromatography>
Column: μ-Bondapak C18 (4.6×250 mm) or the like
Detector: Absorption photometer in ultraviolet part (wavelength: 280 nm)
Mobile Phase: acetonitrile/phosphate buffer (pH 7.8)=45/55, v/v

[1] = Stability of the microgranule prepared in the presence of a binding agent; type: physicochemical; conditions: microgranules of Table 3
Method: Microgranules were prepared according to the information represented in the following Table 3 using the stabilizers in a mole ratio of 1:1 with respect to the active ingredient (IY-81149) and using hydroxypropylmethylcellulose as a binding agent. A fluidized-bed granulator (SFC-MINI, FREUND. CO., LTD., Japan) by which the contact with the ambient moisture can be excluded and preparation and dryness of the granule can be simultaneously carried out in a short time was used. That is, the active ingredient and stabilizer were introduced into a chamber of the fluidized-bed granulator in the amounts shown in Table 3. Then, the binding agent-containing solution was sprayed under the influx air temperature (65° C.) of the chamber, during which the mixture of the active ingredient and stabilizer in the chamber was maintained at a temperature of 40° C. or less. The binding agent was used in an amount of 7% by weight with respect to the granule finally obtained, and the solvent water was used in an amount to dilute the binding agent by 15 times. Also, the total amount of the active ingredient and stabilizer to be introduced into the chamber was adjusted to 300 g. The average particle diameter of the microgranule prepared by appropriately controlling the spray rate and temperature was 0.8 mm.

SMILES | stabilizing effect upon the active ingredient of the present invention (physchem) | Content of the Active Ingredient, initial (physchem; stabilizer not used (control)) [%] | Content of the Active Ingredient, initial (physchem; with Al(OH)3, mole ratio 1:1) [%] | Content of the Active Ingredient, initial (physchem; with Arginine, mole ratio 1:1) [%] | Content of the Active Ingredient, initial (physchem; with Histidine, mole ratio 1:1) [%] | Content of the Active Ingredient, initial (physchem; with K2 CO3, mole ratio 1:1) [%] | Content of the Active Ingredient, initial (physchem; with K2 HPO4, mole ratio 1:1) [%] | Content of the Active Ingredient, initial (physchem; with KHCO3, mole ratio 1:1) [%] | Content of the Active Ingredient, initial (physchem; with Lysine, mole ratio 1:1) [%] | Content of the Active Ingredient, initial (physchem; with Mg(OH)2, mole ratio 1:1) [%] | Content of the Active Ingredient, initial (physchem; with Na2 CO3, mole ratio 1:1) [%] | Content of the Active Ingredient, initial (physchem; with Na2 HPO4, mole ratio 1:1) [%] | Content of the Active Ingredient, initial (physchem; with NaHCO3, mole ratio 1:1) [%] | other results
[OH][Al]([OH])[OH] [Al(OH)3, aluminum hydroxide] | much less stabilizing effect than magnesium hydroxide |  |  |  |  |  |  |  |  |  |  |  |  | 
COc1ccnc(C[S+]([O-])c2nc3cc(-n4cccc4)ccc3[nH]2)c1C (centres unmarked) [IY-81149] |  | 100.1 | 99.6 | 99.2 | 100.6 | 100.5 | 100.0 | 100.3 | 100.6 | 99.8 | 99.4 | 99.2 | 98.9 | 
NCCCC[C@H](N)C(=O)O [Lysine, lysine] |  |  |  |  |  |  |  |  |  |  |  |  |  | stabilizing effect upon the active ingredient of the present invention (physchem; compared with the other stabilizers (Examples 1 and 2)): much less stabilizing effect than magnesium hydroxide
[Mg+2].[OH-].[OH-] [Mg(OH)2, magnesium hydroxide] | superior stabilizing effect |  |  |  |  |  |  |  |  |  |  |  |  | stabilizing effect compared with the other stabilizers [1]: superior stabilizing effect
COc1ccc2[nH]c([S+]([O-])Cc3ncc(C)c(OC)c3C)nc2c1 (centres unmarked) [Omeprazole, omeprazole, reference compound] |  | 99.3 | 99.6 | 99.1 | 99.7 | 100.0 | 99.4 | 99.9 | 99.2 | 100.2 | 100.1 | 99.8 | 99.7 | order of stabilizing effect of the tested stabilizers (physchem; mole ratio 1:1, 15 days, 40° C., relative humidity of 75%): Na2 HPO4 >NaHCO3 >Mg(OH)2 >arginine>Na2CO3 >K2 HPO4 >Al(OH)3 >histidine>K2 CO3 >lysine>KHCO3; remaining at 360 h (physchem; stabilizer not used (control), 40° C., relative humidity of 75%): 26.7%; remaining at 360 h (physchem; with Al(OH)3, mole ratio 1:1, 40° C., relative humidity of 75%): 67.6%; remaining at 360 h (physchem; with Arginine, mole ratio 1:1, 40° C., relative humidity of 75%): 76%; remaining at 360 h (physchem; with Histidine, mole ratio 1:1, 40° C., relative humidity of 75%): 67.1%; remaining at 360 h (physchem; with K2 CO3, mole ratio 1:1, 40° C., relative humidity of 75%): 63.9%; remaining at 360 h (physchem; with K2 HPO4, mole ratio 1:1, 40° C., relative humidity of 75%): 70.7%; remaining at 360 h (physchem; with KHCO3, mole ratio 1:1, 40° C., relative humidity of 75%): 59.4%; remaining at 360 h (physchem; with Lysine, mole ratio 1:1, 40° C., relative humidity of 75%): 60.3%; remaining at 360 h (physchem; with Mg(OH)2, mole ratio 1:1, 40° C., relative humidity of 75%): 86.1%; remaining at 360 h (physchem; with Na2 CO3, mole ratio 1:1, 40° C., relative humidity of 75%): 75.3%; remaining at 360 h (physchem; with Na2 HPO4, mole ratio 1:1, 40° C., relative humidity of 75%): 94%; remaining at 360 h (physchem; with NaHCO3, mole ratio 1:1, 40° C., relative humidity of 75%): 87.5%
